This note sets out measurements from patent US11001591B2, “TRAF 6 inhibitors” (HELMHOLTZ ZENTRUM MUENCHEN—DEUTSCHES FORSCHUNGSZENTRUM FÜR …, priority 2016, dated 2021).

For data set [1], the system named is primary naïve CD4+ T-cells. In words: IL-2 in primary murine CD4+ T-cells. The data set is classed as cell-based, mouse. The settings on record: CD3/CD28 stimulation. On the procedure: For MEF cells, 1.2×10^5 cells per sample were seeded, treated with compound for 6 hours and stimulated with either IL-1β or TNFα for 60 minutes. […] RNA was isolated according to the manufacturer's protocol of the Qiagen RNeasy Kit (MEF cells) or the STRATEC INVITRAP® SPIN UNIVERSAL RNA MINI KIT (Jurkat T-cells). The isolation of mRNA from […] white adipose tissue from DIO mice was performed using TRIzol® Reagent according to manufacturer's instruction. To clear the isolated RNA from genomic DNA, samples (up to 5 μg RNA) were treated with RQ1 RNase-Free DNaseI (Promega) as described in the technical manual. […] For quantification of cDNA in the samples, the LightCylcer480 (Roche) and the KAPA SYBR FAST qPCR Kit were used. For relative quantification, the ΔΔCp method first described by Pfaffl (Pfaffl, M. W., A new mathematical model for relative quantification in real-time RT-PCR. Nucleic Acids Res, 2001. 29(9): p. e45) was applied. […]
For measurement of cytokine secretion, 2×10^5 Jurkat T-cells or primary CD4^+ T-cells or human PBMCs per sample were seeded, treated with compound for 6 hours and stimulated as indicated. 20 hours after stimulation, supernatants were harvested and analyzed with the IL-2, IL-1β and TNFα Ready-Set-Go! […]

The target of data set [2] is T1, TRAF6-Ubc13 binding (Homo sapiens, UniProt Q9Y4K3).
T1 construct: RING-Zincfinger1 (RZ1) domain (residues 50-159) of TRAF6 wildtype; expressed in transfected cells; host or cells: HEK 293T
T1 sequence (Q9Y4K3 50-159): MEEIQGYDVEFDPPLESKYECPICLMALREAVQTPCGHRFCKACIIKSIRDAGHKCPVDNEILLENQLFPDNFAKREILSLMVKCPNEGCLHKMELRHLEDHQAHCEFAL
In words: Co-immunoprecipitation of HA-TRAF6 and endogenous Ubc13 in HEK 293T cells. In kind it is cell-based. The settings on record: listed as C25-140. On the procedure: To study the interaction of TRAF6 and Ubc13 in cells, 1×10^6 293T cells were seeded and after 18 hours cells were transfected with lpg pEF-HA empty or pEF-HA-TRAF6 RZ1 plasmid using the X-tremeGENE HP DNA transfection reagent (Roche). 6 hours upon transfection, cells were treated with compound or DMSO. After 42 hours further incubation, cells were harvested in Co-IP lysis buffer and HA-TRAF6 was immunoprecipitated with anti-HA affinity matrix (Roche). Binding of Ubc13 to TRAF6 was examined in Western Blot analysis.

Data set [3] has as its system 78 oncological cell lines and control cell lines HS-5 and MCF 10A. In words: Omniscreen cancer cell line panel, CellTiter-Glo. The settings on record: nine concentrations, top 80 μM, 72 hours. The data set is classed as cell-based. On the procedure: The effect of C25-140 on cell viability of 80 cancer cell lines using the CellTiter-Glo luminescent cell viability assay was conducted at CrownBioscience Inc. at the testing facility in Beijing. Here, 80 selected cell lines were cultured in media supplemented with 10-15% FBS, in the temperature of 37° C., 5% CO2 and 95% humidity. Culture medium was purchased from GIBCO or Sigma, USA. The cells were treated with C25-140 in 9 dose levels starting at 80 μM with 3.16-fold serial dilutions. Cisplatin served as a reference control and started with a top working concentration of 100 μM. Test samples were incubated for 72 hours and cell viability was measured by the CellTiter-Glo assay.

Molecules are shown by their SMILES. “Also recorded” adds a separate entry of the source.

Regarding `Cc1nn(-c2ccc3nnc(C)n3n2)c(C)c1CCC(=O)N1CCC(Cc2ccccc2)CC1` [Compound 3, 1-(4-benzylpiperidin-1-yl)-3-(3,5-dimethyl-1-(3-methyl-[1,2,4]triazolo[4,3-b]pyridazin-6-yl)-1H-pyrazol-4-yl)propan-1-one], in data set [1], the “IL-2 mRNA expression” value was “impaired” and the IL-2 protein secretion result is recorded as “impaired”. Also, the “interaction of endogenous Ubc13 with ectopically expressed HA-TRAF6” value in data set [2] is “reduced interaction; also recorded: most active analogs”. In data set [3], the “viability of cancer cell lines” value was “major effect is on cancer cells of blood origin”; the “viability of control cell lines HS-5 and MCF 10A” value is “not affected at all”.
